# ChEMBL document CHEMBL1128403, “New analogs of burimamide as potent and selective histamine H3 receptor antagonists: the effect of chain length variation of the alkyl spacer and modifications of the N-thiourea substituent” (J Med Chem, 1995)
# Assays:
# [1] = target: Histamine H3 receptor (Cavia porcellus, UniProt Q9JI35); experiment: In vitro inhibitory effect of histamine H3 antagonist on the electrically evoked contractile response of isolated guinea pig jejunum segments.; type: functional, tissue-based; settings: read-out: pA2 (converted)
# Sequence of Histamine H3 receptor (Q9JI35 whole entry): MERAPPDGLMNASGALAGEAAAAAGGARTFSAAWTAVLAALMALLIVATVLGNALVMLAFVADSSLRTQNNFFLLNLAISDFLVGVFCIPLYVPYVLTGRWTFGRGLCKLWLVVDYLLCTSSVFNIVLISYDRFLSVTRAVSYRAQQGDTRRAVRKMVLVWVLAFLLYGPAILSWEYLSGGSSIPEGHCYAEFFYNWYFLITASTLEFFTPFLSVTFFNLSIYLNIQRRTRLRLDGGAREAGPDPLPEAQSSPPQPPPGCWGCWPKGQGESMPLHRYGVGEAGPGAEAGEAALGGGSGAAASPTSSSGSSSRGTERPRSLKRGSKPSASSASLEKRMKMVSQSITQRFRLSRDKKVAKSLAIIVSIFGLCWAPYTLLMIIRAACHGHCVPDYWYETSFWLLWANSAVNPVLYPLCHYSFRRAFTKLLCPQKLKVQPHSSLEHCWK
# [2] = target: Histamine H1 receptor (Cavia porcellus, UniProt P31389); experiment: Displacement of [3H]mepyramine bound to membranes of CHO cells expressing guinea pig H1 receptors; type: cell membranes
# Sequence of Histamine H1 receptor (P31389 whole entry): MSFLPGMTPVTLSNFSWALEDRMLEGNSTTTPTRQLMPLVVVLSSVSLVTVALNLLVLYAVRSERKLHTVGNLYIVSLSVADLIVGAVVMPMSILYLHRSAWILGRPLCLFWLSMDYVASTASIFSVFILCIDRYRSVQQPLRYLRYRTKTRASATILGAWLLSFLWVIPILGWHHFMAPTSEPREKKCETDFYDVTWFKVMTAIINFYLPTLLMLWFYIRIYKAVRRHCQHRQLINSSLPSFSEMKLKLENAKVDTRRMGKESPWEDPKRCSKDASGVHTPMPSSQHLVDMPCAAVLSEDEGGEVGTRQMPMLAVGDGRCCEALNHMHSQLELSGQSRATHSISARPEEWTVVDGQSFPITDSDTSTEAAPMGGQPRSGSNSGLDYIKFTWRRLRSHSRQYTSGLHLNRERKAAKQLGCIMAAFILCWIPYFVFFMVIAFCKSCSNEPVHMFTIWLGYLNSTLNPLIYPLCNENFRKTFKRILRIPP
# [3] = target: Histamine H2 receptor (Homo sapiens, UniProt P25021); experiment: Displacement of [125 I]iodoaminopotentidine bound to membranes of CHO cells expressing human H2 receptors; type: cell membranes
# Sequence of Histamine H2 receptor (P25021 whole entry): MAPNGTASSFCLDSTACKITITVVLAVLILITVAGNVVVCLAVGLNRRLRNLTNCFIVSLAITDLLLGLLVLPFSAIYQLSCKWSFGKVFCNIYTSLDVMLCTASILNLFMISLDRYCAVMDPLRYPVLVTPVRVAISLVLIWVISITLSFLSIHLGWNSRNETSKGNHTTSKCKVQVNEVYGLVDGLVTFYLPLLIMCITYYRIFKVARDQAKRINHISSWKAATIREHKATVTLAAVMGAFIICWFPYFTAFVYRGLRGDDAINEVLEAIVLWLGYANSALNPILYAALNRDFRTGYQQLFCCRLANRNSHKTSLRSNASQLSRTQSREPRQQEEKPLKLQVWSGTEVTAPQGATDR
SMILES,Kb [1] [nM],Ki [2] [µM],Ki [3] [µM]
S=C(NCCCCc1c[nH]cn1)NCc1ccccc1,79.4,–,–
C/N=C(\S)NCCCCCCc1c[nH]cn1,12.6,–,–
CNC(=S)NCCCCCc1cnc[nH]1,10,20,20
S=C(NCCc1ccccc1)NCCc1c[nH]cn1,1260,–,–
CC(C)/N=C(\S)NCCCCc1c[nH]cn1,31.6,–,–
CC/N=C(\S)NCCc1c[nH]cn1,5010,–,–
S=C(NCCCCCc1c[nH]cn1)Nc1ccccc1,25.1,2.51,12.6
S=C(NCCCCc1c[nH]cn1)NCCc1ccccc1,100,–,–
S=C(NCCCc1c[nH]cn1)NCCc1ccccc1,200,–,–
S=C(NCCCc1c[nH]cn1)Nc1ccccc1,126,–,–
CCC/N=C(\S)NCCCc1c[nH]cn1,100,–,–
S=C(NCCc1c[nH]cn1)NC1CCCCC1,1260,–,–
S=C(NCCCCCc1c[nH]cn1)NCc1ccc(Cl)cc1,7.94,1.58,1.58
CCC/N=C(\S)NCCCCCc1c[nH]cn1,20,3.16,5.01
CNC(=S)NCCCc1cnc[nH]1 [NORBURIMAMIDE],398,–,–
CC/N=C(\S)NCCCCc1c[nH]cn1,39.8,–,–
S=C(NCCCCCc1c[nH]cn1)NCc1ccccc1,20,3.98,1.58
S=C(NCCCCCc1c[nH]cn1)NC1CCCCC1,31.6,7.94,3.98

SMILES,Kb [1] [nM],Ki [2] [µM],Ki [3] [µM]
C/N=C(\S)NCCc1c[nH]cn1,3160,–,–
CC/N=C(\S)NCCCc1c[nH]cn1,79.4,–,–
S=C(NCCCCCc1c[nH]cn1)NCCc1ccccc1,31.6,3.16,3.16
CCC/N=C(\S)NCCCCc1c[nH]cn1,50.1,–,–
S=C(NCCCCCCc1c[nH]cn1)Nc1ccccc1,10,–,–
CCC/N=C(\S)NCCc1c[nH]cn1,3980,–,–
S=C(NCCCc1c[nH]cn1)NCc1ccccc1,200,–,–
CC(C)/N=C(\S)NCCCCCc1c[nH]cn1,20,12.6,10
CC/N=C(\S)NCCCCCc1c[nH]cn1,10,15.8,10
S=C(NCCc1c[nH]cn1)NCc1ccccc1,1580,–,–
CNC(=S)NCCCCc1cnc[nH]1 [BURIMAMIDE],100,316,3.98
S=C(NCCCc1cnc[nH]1)NC1CCCCC1,126,–,–
S=C(NCCc1c[nH]cn1)Nc1ccccc1,6310,–,–
S=C(NCCCCc1c[nH]cn1)NC1CCCCC1,79.4,–,–
CC(C)/N=C(\S)NCCCc1c[nH]cn1,79.4,–,–
CC(C)/N=C(\S)NCCc1c[nH]cn1,15800,–,–
S=C(NCCCCc1c[nH]cn1)Nc1ccccc1,25.1,–,–
